US20230118142A1, “AGENTS FOR USE IN THE TREATMENT OF TISSUE DAMAGE” (UCL BUSINESS LTD, priority 2020, published 2023)
Values joined by “and” are separate entries in the source; they are usually repeats but may differ in a detail not shown here. Equal values may be shown once.

How the values were obtained:
CRP [1] = biological target: T1, CRP (Homo sapiens, UniProt P02741); assay: MIRA immunoturbidimetric assay; assay type: binding; parameters: The final concentrations were 0.73 μM native pentameric CRP; from tissue
T1 sequence (P02741 19-224): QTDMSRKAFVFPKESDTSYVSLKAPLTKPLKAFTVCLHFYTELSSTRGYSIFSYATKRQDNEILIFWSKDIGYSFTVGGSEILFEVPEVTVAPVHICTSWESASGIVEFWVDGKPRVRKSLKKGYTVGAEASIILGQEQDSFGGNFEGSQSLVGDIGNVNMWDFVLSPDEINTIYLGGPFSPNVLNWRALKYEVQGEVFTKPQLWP
From the text: The CRP immunoturbidimetric assay on the Roche COBAS MIRA Plus autoanalyser, utilises two different sized latex particles that are covalently coupled with two different monoclonal antibodies with specificity for different CRP epitopes (10). The assay was validated by Roche for measurement of native pentameric CRP, for which it has high sensitivity and specificity and a high upper detection limit; it was calibrated against a standard produced in our laboratory. Serendipitously, one of the assay's antibodies binds to an epitope present on the ligand binding B face of CRP. […]
CRP concentrations were measured in the presence and absence of ligands by the COBAS MIRA autoanalyser. […] CRP concentration was determined spectrophotometrically (Beckman Coulter DU 650) in quartz cuvettes with a 1 cm light path, by measuring A280 after correction for absorbance at 320 nm (light scattering) and using the measured absorption coefficient A(1%, 1 cm)=17.5 for human CRP (7). […]
Data are expressed as measured CRP (mg/L) against final total ligand concentration (M) and were plotted using Sigmaplot (V14) using the 4 parameter logistic curve y=min+(max−min)/(1+(x/EC50)^−Hill slope) to calculate EC50. Where appropriate, samples were also measured in whole normal human serum following the addition of a known amount of human CRP. […]

CRP [2] = biological target: T1, CRP; assay: Roche immunoturbidimetric assay: pure CRP; assay type: binding; parameters: The final concentrations were 0.73 μM native pentameric CRP; from tissue; conditions: pure CRP in TC buffer; read-out: IC50 (μM), SD; inhibition of Roche CRP immunoreactivity
Procedure: (i) Human CRP at ˜90 μg/ml (3.9 μM monomer or 0.78 μM pentamer) in TC buffer was prepared from a stock solution; a 75 μl aliquot was used in the assay.
(ii) Compounds were prepared from stock solutions at up to 10 mM in TC (labelled S1). They were serially diluted with TC buffer (100 μl ligand+200 μl TC) to provide up to 9 dilutions, S2-S10. A TC buffer control (S0) was included in each assay.
(iii) A 15 μl volume of each ligand solution was incubated with 75 μl of CRP for 1 h at 37° C. The final concentrations were CRP pentamer=0.73 μM, ligands S1-S10=625-0.03 μM, corresponding to ligand:CRP pentamer ratios of 853-0.04.
(iv) CRP concentrations were measured by the Roche microparticle-enhanced immunoturbidimetric assay (10) on the COBAS MIRA autoanalyser, and results expressed as a percentage of the CRP control.
(v) Data were plotted using Sigmaplot (V14) using the 4 parameter logistic curve y=min+(max−min)/(1+(x/EC50)^−Hill slope) to calculate EC50.
(vii) All compounds were assayed in comparison with a highly purified preparation of BPC8, that was prepared by Carbogen AMCIS AG, dissolved in sterile water and diluted into TC buffer as required.
The immunoturbidimetric CRP assay on the Roche COBAS MIRA Plus autoanalyser, utilises two different sized microparticles that are covalently coupled with two different monoclonal antibodies, which recognise different CRP epitopes. The assay was developed by Roche for clinical measurement of CRP serum and plasma with high sensitivity and a very wide dynamic range. Serendipitously, one of the two antibodies binds to an epitope present on the ligand binding B-face of CRP. Thus, when the binding pocket is occupied by ligand and, especially, when the B-face is occluded by the B-face to B-face interaction of two native CRP pentamers produced by cross linking via our unique bivalent ligands, the assay fails to detect the CRP. In contrast, the CRP is all detected and assayed normally by other assays that disrupt the crosslinking and/or use antibodies which recognise different, non-occluded, epitopes. Inhibition of CRP recognition in the Roche assay is thus a convenient tool to monitor the efficacy and potency of complex formation between our unique ligands and CRP.

CRP [3] = biological target: T1, CRP; assay: In vivo clearance of CRP/ligand complexes generated in vivo in mice; parameters: The final concentrations were 0.73 μM native pentameric CRP; from tissue
Procedure: (i) Two groups of 8 wild-type C57BL/6 mice (male; 23-27 weeks old) were used: group 1 (control) and group 2 (treated).
(§1) (ii) Both groups of animals were given 200 μl of human CRP (5 mg/ml in azide-free TC buffer) subcutaneously on day 1.
(iii) On day 2 (+18 h), control animals were given a 200 μl intravenous bolus of TC buffer. Treated animals were given a 200 μl iv bolus of ligand (prepared at 5 mg/ml in TC buffer).
(iv) One timed blood sample and a terminal blood sample were collected from each mouse into heparinised tubes and weighed. This generated data in quadruplicate at 4 time points, normally 30, 60, 120 and 360 minutes.
(v) ^125I radiolabel was measured (Perkin Elmer Wizard; protocol #1) in whole blood to quantify total CRP. In some cases, electroimmunoassay as above was also used to determine total CRP concentration.
(vi) Plasma was prepared and free CRP determined by Roche immunoassay.
(§2) Subcutaneous injection of human CRP provided circulating CRP concentrations with which to test for effects of our ligands in vivo. (Table 4).

CRP [4] = biological target: T1, CRP; assay: Size exclusion chromatography of CRP/ligand cross linking; assay type: binding; parameters: The final concentrations were 0.73 μM native pentameric CRP; from tissue; conditions: CRP/ligand complex re-chromatographed in absence of free ligand
Procedure: (i) Ligands were diluted to 0.5 mM in TC buffer from up to 10 mM stocks. Serial dilutions were prepared as required. […]
(iii) The complex was chromatographed on a Superdex200 column (10/300 GL; 24 ml bed volume), connected to the ÅKTA100 Explorer HPLC system, and equilibrated and eluted in TC buffer at 0.5 ml/min. Eluates were monitored at 280 nm and fractions (0.5 ml) collected as required.
Size exclusion chromatography on a Superdex 200 column equilibrated and eluted with TC buffer pH 8.0, and calibrated with standard globular marker proteins and with human CRP, the native CRP pentamer (Mr 115 kDa) eluted at 13.9 ml (range 13.7-14.0 ml, n=10).

[5] = Circulating CRP concentrations after subcutaneous CRP in mice; assay type: in vivo; conditions: individual mice
Procedure: as §1, §2

CRP [6] = biological target: T1, CRP; assay: In vivo clearance of preformed CRP/ligand complexes in mice; parameters: from tissue
Procedure: (i) CRP at 1 mg/ml in azide-free TC buffer (containing, in some experiments, ˜10^6 cpm/ml of ^125I-CRP) was incubated with a 5-fold molar excess of ligand. A control (ligand-free) sample was also prepared. Cross linking of CRP was confirmed by SEC in TC buffer of a small sample of complex.
(ii) Two groups of eight wild-type C57BL/6 mice (male; 23-27 weeks old) were used.
The complex or control (200 μl, 200 μg CRP) was injected into the tail vein of each mouse. A single timed collection of blood was taken from the tail vain of each mouse; a second terminal sample was also collected. This yielded 4 samples each at 30, 60, 120 and 180 min for control and treated groups.
(iii) Blood samples were weighed and CRP measured in the Roche assay and, in some cases by electroimmunoassay (4, 13). ^125I-CRP was measured by gamma counting (Perkin Elmer Wizard; protocol #1).
Complexes were prepared in vitro using ^125I-labelled CRP and an excess of ligand, and the mixture was then injected intravenously into mice. Clearance of CRP was monitored by counting of the ^125I-CRP tracer and stable CRP-ligand complexes were detected by lack of CRP detection in the Roche assay of the plasma samples. The formation of CRP/ligand complexes was confirmed by size exclusion chromatography before use in each in vivo experiment.

| Compound | IC50 (CRP [1]) | IC50 (CRP [2]) | Stable to rechromatography (CRP [4]) | further results |
| --- | --- | --- | --- | --- |
| O=C(NC(C(=O)O)[C@H]1CN2CCC1CC2)c1cccc(C(=O)NC(C(=O)O)[C@H]2CN3CCC2CC3)c1 (stereo partly drawn) [Compound P2B-E, 2-[[3-[[carboxy-[(3R)-quinuclidin-3-yl]methyl]carbamoyl]benzoyl]amino]-2-[(3R)-quinuclidin-3-yl]acetic acid] | 2.02 µM |  |  |  |
| O=C(NC(C(=O)O)[C@H]1CN2CCC1CC2)c1ccc(C(=O)NC(C(=O)O)[C@H]2CN3CCC2CC3)cc1 (stereo partly drawn) [Compound P2B-B, (R,2R,2′R)-2,2′-(terephthaloylbis(azanediyl))bis(2-((R)-quinuclidin-3-yl)acetic acid)] | 0.6 µM | 0.64 ± 0.17 µM | Yes | Time CRP:ligand complex generated in vivo was stable (CRP [3]): at least 1 hour |
| CRP: Human C-reactive protein, isolated and purified, injected into mice |  |  |  | Circulating CRP concentration ([5]; 16 h after subcutaneous 1 mg CRP): 58.2 mg/L and 69.2 mg/L; Circulating CRP concentration ([5]; 18 h after subcutaneous 1 mg CRP): 44.0 mg/L and 57.2 mg/L; Circulating CRP concentration ([5]; 24 h after subcutaneous 1 mg CRP): 24.0 mg/L and 32.2 mg/L; t1/2 of clearance of CRP (CRP [6]; intravenous, 125I-CRP tracer): ~2.17 h |
| O=C(NC([C@H]1CN2CCC1CC2)P(=O)(O)OCc1ccccc1)c1ccc(C(=O)NC([C@H]2CN3CCC2CC3)P(=O)(O)OCc2ccccc2)cc1 (some centres unmarked) [Compound P3A-C] |  | 0.91 µM |  | Time complexes stable in vivo (CRP [6]; complexes formed in vitro): at least 6 hours |
| O=C(O)C(NC(=O)[C@H]1CC[C@H](C(=O)NC(C(=O)O)[C@H]2CN3CCC2CC3)CC1)[C@H]1CN2CCC1CC2 (stereo partly drawn) [Compound P2B-H, 2-[[4-[[-carboxy-[(3R)-quinuclidin-3-yl]methyl]carbamoyl]cyclohexanecarbonyl]amino]-2-[(3R)-quinuclidin-3-yl]acetic acid] |  | 0.6 µM | Yes | Time complex generated in vivo was partially stable (CRP [3]): at least 3 hours |
